Test results reported in ChEMBL document CHEMBL5154842, “Unique Carbazole-Oxadiazole Derivatives as New Potential Antibiotics for Combating Gram-Positive and -Negative Bacteria” (J Med Chem, 2022).
Converted amounts (≈) assume the structure as drawn.

Tests used:
Type in all cases: functional
Staphylococcus aureus [1] = assay: Antibacterial activity against methicillin-resistant Staphylococcus aureus N315 assessed as inhibition of bacterial growth incubated for 24 hrs by CLSI protocol based two fold serial dilution method
Enterococcus faecalis = assay: Antibacterial activity against Enterococcus faecalis assessed as inhibition of bacterial growth incubated for 24 hrs by CLSI protocol based two fold serial dilution method
Staphylococcus aureus [2] = assay: Antibacterial activity against Staphylococcus aureus assessed as inhibition of bacterial growth incubated for 24 hrs by CLSI protocol based two fold serial dilution method
Staphylococcus aureus [3] = assay: Antibacterial activity against Staphylococcus aureus 25923 assessed as inhibition of bacterial growth incubated for 24 hrs by CLSI protocol based two fold serial dilution method
Staphylococcus aureus [4] = assay: Antibacterial activity against Staphylococcus aureus 29213 assessed as inhibition of bacterial growth incubated for 24 hrs by CLSI protocol based two fold serial dilution method
Klebsiella pneumoniae = assay: Antibacterial activity against Klebsiella pneumonia assessed as inhibition of bacterial growth incubated for 24 hrs by CLSI protocol based two fold serial dilution method
Escherichia coli [5] = assay: Antibacterial activity against Escherichia coli assessed as inhibition of bacterial growth incubated for 24 hrs by CLSI protocol based two fold serial dilution method
Escherichia coli [6] = assay: Antibacterial activity against Escherichia coli 25922 assessed as inhibition of bacterial growth incubated for 24 hrs by CLSI protocol based two fold serial dilution method
Pseudomonas aeruginosa [7] = assay: Antibacterial activity against Pseudomonas aeruginosa assessed as inhibition of bacterial growth incubated for 24 hrs by CLSI protocol based two fold serial dilution method
Pseudomonas aeruginosa [8] = assay: Antibacterial activity against Pseudomonas aeruginosa ATCC 27853 assessed as inhibition of bacterial growth incubated for 24 hrs by CLSI protocol based two fold serial dilution method
Acinetobacter baumannii = assay: Antibacterial activity against Acinetobacter baumannii assessed as inhibition of bacterial growth incubated for 24 hrs by CLSI protocol based two fold serial dilution method

| SMILES | MIC (Staphylococcus aureus [1]) [µg/mL] | MIC (Enterococcus faecalis) [µg/mL] | MIC (Staphylococcus aureus [2]) [µg/mL] | MIC (Staphylococcus aureus [3]) [µg/mL] | MIC (Staphylococcus aureus [4]) [µg/mL] | MIC (Klebsiella pneumoniae) [µg/mL] | MIC (Escherichia coli [5]) [µg/mL] | MIC (Escherichia coli [6]) [µg/mL] | MIC (Pseudomonas aeruginosa [7]) [µg/mL] | MIC (Pseudomonas aeruginosa [8]) [µg/mL] | MIC (Acinetobacter baumannii) [µg/mL] |
| --- | --- | --- | --- | --- | --- | --- | --- | --- | --- | --- | --- |
| CCN(CC)CCOc1cccc2c1c1ccccc1n2Cc1nnc(S)o1 | 128 (≈ 323 µM) | 4 (≈ 10.1 µM) | 256 (≈ 646 µM) | 256 (≈ 646 µM) | 256 (≈ 646 µM) | 256 (≈ 646 µM) | 256 (≈ 646 µM) | 256 (≈ 646 µM) | 256 (≈ 646 µM) | 2 (≈ 5.04 µM) | 256 (≈ 646 µM) |
| CC(C)=CCOc1cccc2c1c1ccccc1n2Cc1nnc(S)o1 | 1 (≈ 2.74 µM) | 4 (≈ 10.9 µM) | 256 (≈ 700 µM) | 4 (≈ 10.9 µM) | 4 (≈ 10.9 µM) | 4 (≈ 10.9 µM) | 8 (≈ 21.9 µM) | 4 (≈ 10.9 µM) | 256 (≈ 700 µM) | 2 (≈ 5.47 µM) | 8 (≈ 21.9 µM) |
| CC(C)=CCn1c2ccccc2c2c(OCc3nnn[nH]3)cccc21 | 16 (≈ 48 µM) | 256 (≈ 768 µM) | 256 (≈ 768 µM) | 64 (≈ 192 µM) | 32 (≈ 96 µM) | 32 (≈ 96 µM) | 32 (≈ 96 µM) | 128 (≈ 384 µM) | 256 (≈ 768 µM) | 0.5 (≈ 1.5 µM) | 32 (≈ 96 µM) |
| Sc1nnc(COc2cccc3[nH]c4ccccc4c23)o1 | 2 (≈ 6.73 µM) | 2 (≈ 6.73 µM) | 64 (≈ 215 µM) | 64 (≈ 215 µM) | 128 (≈ 430 µM) | 4 (≈ 13.5 µM) | 1 (≈ 3.36 µM) | 4 (≈ 13.5 µM) | 256 (≈ 861 µM) | 64 (≈ 215 µM) | 64 (≈ 215 µM) |
| Sc1nnc(COc2cccc3c2c2ccccc2n3Cc2nnc(S)o2)o1 | 32 (≈ 77.8 µM) | 32 (≈ 77.8 µM) | 32 (≈ 77.8 µM) | 64 (≈ 156 µM) | 64 (≈ 156 µM) | 64 (≈ 156 µM) | 32 (≈ 77.8 µM) | 32 (≈ 77.8 µM) | 128 (≈ 311 µM) | 128 (≈ 311 µM) | 128 (≈ 311 µM) |
| Fc1ccc(COc2cccc3c2c2ccccc2n3Cc2nnc(S)o2)cc1 | 1 (≈ 2.47 µM) | 2 (≈ 4.93 µM) | 256 (≈ 631 µM) | 2 (≈ 4.93 µM) | 8 (≈ 19.7 µM) | 4 (≈ 9.87 µM) | 0.25 (≈ 0.617 µM) | 2 (≈ 4.93 µM) | 256 (≈ 631 µM) | 8 (≈ 19.7 µM) | 4 (≈ 9.87 µM) |
| Clc1cnc(COc2cccc3[nH]c4ccccc4c23)s1 | 256 (≈ 813 µM) | 256 (≈ 813 µM) | 256 (≈ 813 µM) | 256 (≈ 813 µM) | 256 (≈ 813 µM) | 256 (≈ 813 µM) | 256 (≈ 813 µM) | 256 (≈ 813 µM) | 256 (≈ 813 µM) | 256 (≈ 813 µM) | 256 (≈ 813 µM) |
| Fc1ccc(COc2cccc3c2c2ccccc2n3Cc2nnc(S)o2)c(F)c1 | 32 (≈ 75.6 µM) | 64 (≈ 151 µM) | 128 (≈ 302 µM) | 64 (≈ 151 µM) | 64 (≈ 151 µM) | 32 (≈ 75.6 µM) | 128 (≈ 302 µM) | 16 (≈ 37.8 µM) | 256 (≈ 605 µM) | 0.25 (≈ 0.59 µM) | 64 (≈ 151 µM) |
| CCCCCCCCCCCCOc1cccc2c1c1ccccc1n2Cc1nnc(S)o1 | 256 (≈ 550 µM) | 256 (≈ 550 µM) | 256 (≈ 550 µM) | 256 (≈ 550 µM) | 128 (≈ 275 µM) | 256 (≈ 550 µM) | 256 (≈ 550 µM) | 256 (≈ 550 µM) | 256 (≈ 550 µM) | 256 (≈ 550 µM) | 256 (≈ 550 µM) |
| CCCCCOc1cccc2c1c1ccccc1n2Cc1nnc(S)o1 | 256 (≈ 697 µM) | 256 (≈ 697 µM) | 256 (≈ 697 µM) | 256 (≈ 697 µM) | 256 (≈ 697 µM) | 256 (≈ 697 µM) | 256 (≈ 697 µM) | 256 (≈ 697 µM) | 256 (≈ 697 µM) | 256 (≈ 697 µM) | 128 (≈ 348 µM) |
| CCn1cc(C(=O)O)c(=O)c2cc(F)c(N3CCNCC3)cc21 [NORFLOXACIN] | 0.5 (≈ 1.57 µM) | 2 (≈ 6.26 µM) | 2 (≈ 6.26 µM) | 1 (≈ 3.13 µM) | 4 (≈ 12.5 µM) | 4 (≈ 12.5 µM) | 0.25 (≈ 0.783 µM) | 2 (≈ 6.26 µM) | 8 (≈ 25.1 µM) | 128 (≈ 401 µM) | 128 (≈ 401 µM) |
| Sc1nnc(Cn2c3ccccc3c3c(OCc4ccc(Cl)cc4)cccc32)o1 | 256 (≈ 607 µM) | 256 (≈ 607 µM) | 256 (≈ 607 µM) | 256 (≈ 607 µM) | 256 (≈ 607 µM) | 256 (≈ 607 µM) | 256 (≈ 607 µM) | 4 (≈ 9.48 µM) | 256 (≈ 607 µM) | 256 (≈ 607 µM) | 256 (≈ 607 µM) |
| Fc1cccc(COc2cccc3c2c2ccccc2n3Cc2nnc(S)o2)c1 | 64 (≈ 158 µM) | 32 (≈ 78.9 µM) | 128 (≈ 316 µM) | 32 (≈ 78.9 µM) | 128 (≈ 316 µM) | 32 (≈ 78.9 µM) | 128 (≈ 316 µM) | 16 (≈ 39.5 µM) | 256 (≈ 631 µM) | 0.5 (≈ 1.23 µM) | 64 (≈ 158 µM) |
